Patent US6989385B2, “Pyrazole compounds useful as protein kinase inhibitors” (Vertex Pharmaceuticals Incorporated, priority 2000, dated 2006)

Target: T1, Aurora-2 (Homo sapiens, UniProt O14965)
T1 sequence (O14965 1-403): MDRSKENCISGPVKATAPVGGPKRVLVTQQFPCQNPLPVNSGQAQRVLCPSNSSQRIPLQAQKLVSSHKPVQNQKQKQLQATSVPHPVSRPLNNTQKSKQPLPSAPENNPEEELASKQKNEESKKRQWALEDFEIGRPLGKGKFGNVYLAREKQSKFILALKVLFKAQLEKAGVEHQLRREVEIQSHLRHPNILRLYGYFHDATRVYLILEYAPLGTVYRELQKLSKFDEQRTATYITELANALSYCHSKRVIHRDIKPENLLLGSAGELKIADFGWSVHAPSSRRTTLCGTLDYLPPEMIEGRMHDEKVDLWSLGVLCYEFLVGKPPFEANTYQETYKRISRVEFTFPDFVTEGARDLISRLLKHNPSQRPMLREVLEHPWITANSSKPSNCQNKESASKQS
Assay: Ki determination for the inhibition of Aurora-2 (coupled enzyme assay)
Format: biochemical
Settings: 70 nM Aurora-2, 30° C.
Protocol: To an assay stock buffer solution containing 0.1 M HEPES 7.5, 10 mM MgCl2, 1 mM DTT, 25 mM NaCl, 2.5 mM phosphoenolpyruvate, […], 30 mg/ml pyruvate kinase, 10 mg/ml lactate dehydrogenase, 40 mM ATP, and 800 μM peptide (LRRASLG, American Peptide, Sunnyvale, Calif.) was added a DMSO solution of a compound of the present invention to a final concentration of 30 μM. The resulting mixture was incubated at 30° C. for 10 min. The reaction was initiated by the addition of 10 μL of Aurora-2 stock solution to give a final concentration of 70 nM in the assay. […] The Ki values were determined from the rate data as a function of inhibitor concentration.

`Cc1cc(Nc2cc(C)[nH]n2)nc(C(C)(C)c2ccccc2)n1` [IIId-20] was tested. Which Ki did it give?
The Ki was 100 to 1000 nM.
